The source of these data is US5200409A, “Composition and use of substituted 1,3-dithiolo-and 1,4-dithiinoquinoxalines as an antimicrobial” (The Dow Chemical Company, priority 1992, dated 1993).

SMILES strings stand for the structures. Converted amounts (≈) assume the structure as drawn. Where two headings read alike, the source gives them in different places.

The subject of assay [1] is Saccharomyces cerevisiae (Sc). Nature of the assay: Minimum inhibitory concentration (MIC) in malt yeast agar. Type of assay: cell-based, Saccharomyces cerevisiae ATCC 4105. To be noted: malt yeast agar, 30° C., 48 hours for yeast, read-out: Minimum Inhibitory Concentration, Sc. On the procedure: (§1) The minimum inhibitory concentration (MIC) for the compounds listed in Table I is determined for 9 bacteria, using nutrient agar: and 7 yeast and fungi, using malt yeast agar. A one percent solution of the test compound is prepared in a mixture of acetone and water. Nutrient agar is prepared at pH 6.8, representing a neutral medium, and at pH 8.2, representing an alkaline medium. The nutrient agars are prepared by adding 23 g of nutrient agar to one-liter of deionized water. In addition, the alkaline medium is prepared by adjusting a 0.04M solution of N-[tris-(hydroxymethyl)methyl]-glycine buffered deionized water with concentrated sodium hydroxide to a pH of […]. Malt yeast agar is prepared by adding 3 g yeast extract and 45 g malt agar per liter of deionized water. The specific agar is dispensed in 30 ml aliquots into 25×200 mm test tubes, capped and autoclaved for 15 minutes at 115° C. The test tubes containing the agar are cooled in a water bath until the temperature of the agar is 48° C. Then, an appropriate amount of the one percent solution of the test compound is added (except in the controls where no compound is added) to the respective test tubes so that the final concentrations are 500, 250, 100, 50, 25, 10, 5, 2.5, 1.0 and zero parts per million of the test compound in the agar, thus having a known concentration of test compound dispersed therein. The contents of the test tubes are then transferred to respective petri plates. After drying for 24 hours, the petri plates containing nutrient agar are inoculated with bacteria and those containing malt yeast agar are inoculated with yeast and fungi.
(§2) The inoculation with the yeast and fungi is accomplished as follows. Cultures of yeast and fungi are incubated for seven days on malt yeast agar at 30° C. These cultures are used to prepare suspensions by the following procedure. A suspension of each organism is prepared by adding 10 ml of sterile saline and 10 microliters of octylphenoxy polyethoxy ethanol to the agar slant of yeast or fungi. The sterile saline/octylphenoxy polyethoxy ethanol solution is then agitated with a sterile swab to suspend the microorganism grown on the slant. Each resulting suspension is diluted into sterile saline (1 part suspension: 9 parts sterile saline). Aliquots of these dilutions are placed in individual wells of Steer's Replicator and petri plates inoculated as previously described. The petri plates are incubated at 30° C. and read after 48 hours for yeast and 72 hours for fungi.
(§3) Table II lists the bacteria, yeast and fungi used in the MIC test described above along with their respective American Type Culture Collection (ATCC) identification numbers.

Assay [2] has as its system Salmonella choleraesuis (Sc). Nature of the assay: Minimum inhibitory concentration (MIC) in nutrient agar. It is filed as cell-based, Salmonella choleraesuis ATCC 10708. Conditions: Salmonella enterica, 48 h. On the procedure: as §1
(§4) The inoculation with bacteria is accomplished by using the following procedure. Twenty-four hour-cultures of each of the bacteria are prepared by incubating the respective bacteria in tubes containing nutrient broth for 24 hours at 30° C. in a shaker. Dilutions of each of the 24 hour-cultures are made so that nine separate suspensions (one for each of the nine test bacteria) are made, each containing 10^8 colony forming units (CFU) per ml of suspension of a particular bacteria. Aliquots of 0.3 ml of each of the bacterial suspensions are used to fill the individual wells of Steer's Replicator. For each microbial suspension, 0.3 ml was used to fill three wells (i.e., three wells of 0.3 ml each) so that for the nine different bacteria, 27 wells are filled. The Steer's Replicator is then used to inoculate both the neutral and alkaline pH nutrient agar petri plates.
(§5) The inoculated petri plates are incubated at 30° C. for 48 hours and then read to determine if the test compound which is incorporated into the agar prevented growth of the respective bacteria.
as §3

Assay [3] has as its system Enterobacter aerogenes (Ea). The assay is described as above. It is filed as cell-based, Enterobacter aerogenes ATCC 13048. To be noted: Klebsiella aerogenes, 48 h. On the procedure:
as §1, §4, §5, §3

In assay [4] the test system is Pseudomonas aeruginosa (Pa). The description is as above. It is filed as cell-based, Pseudomonas aeruginosa ATCC 10145. Conditions: 48 hours. On the procedure: as §1, §4, §5, §3
A further assay relates to Candida albicans (Ca). Nature of the assay: Minimum inhibitory concentration (MIC) in malt yeast agar. It is filed as cell-based, Candida albicans ATCC 10231. To be noted: malt yeast agar; 30° C.; 48 hours for yeast; read-out: Minimum Inhibitory Concentration, Ca. On the procedure: as §1, §2, §3
The subject of assay [5] is Klebsiella pneumoniae (Kp). Nature of the assay: Minimum inhibitory concentration (MIC) in nutrient agar. Type of assay: cell-based, Klebsiella pneumoniae ATCC 8308. The method, then:
as §1, §4, §5, §3

In assay [6] the test system is Aureobasidium pullulan (Ap). Nature of the assay: Minimum inhibitory concentration (MIC) in malt yeast agar. Type of assay: cell-based, Aureobasidium pullulan ATCC 16622. Conditions: read-out: Minimum Inhibitory Concentration, Ap. The method, then:
as §1, §2, §3

The test system of assay [7] is Pseudomonas aeruginosa (PRD-10). Nature of the assay: Minimum inhibitory concentration (MIC) in nutrient agar. Conditions: 48 h. Type of assay: cell-based, Pseudomonas aeruginosa ATCC 15442. On the procedure: as §1, §4, §5, §3
In the next assay the test system is Aspergillus niger (An). Nature of the assay: Minimum inhibitory concentration (MIC) in malt yeast agar. It is filed as cell-based, Aspergillus niger ATCC 16404. Conditions: malt yeast agar; 30° C.; 72 hours for fungi; read-out: Minimum Inhibitory Concentration, An. The method, then: as §1, §2, §3
A further assay deals with Escherichia coli (Ec). Nature of the assay: Minimum inhibitory concentration (MIC) in nutrient agar. Type of assay: cell-based, Escherichia coli ATCC 11229. Conditions: 48 h. The method, then: as §1, §4, §5, §3
A further assay has as its system Proteus vulgaris (Pv). The assay is described as above. Conditions: 48 h. It is filed as cell-based, Proteus vulgaris ATCC 881. On the procedure:
as §1, §4, §5, §3

A further assay deals with Trichoderma viride (Tv). Nature of the assay: Minimum inhibitory concentration (MIC) in malt yeast agar. It is filed as cell-based, Trichoderma viride ATCC 8678. Conditions: malt yeast agar; 30° C.; 72 hours for fungi; read-out: Minimum Inhibitory Concentration, Tv. On the procedure: as §1, §2, §3
Another assay concerns Bacillus subtilis (Bs). Nature of the assay: Minimum inhibitory concentration (MIC) in nutrient agar. Type of assay: cell-based, Bacillus subtilis ATCC 8473. The method, then: as §1, §4, §5, §3
The next assay has as its system Fusarium oxysporum (Fo). Nature of the assay: Minimum inhibitory concentration (MIC) in malt yeast agar. To be noted: malt yeast agar; 30° C.; 72 hours for fungi; read-out: Minimum Inhibitory Concentration, Fo. Type of assay: cell-based, Fusarium oxysporum ATCC 48112. The method, then: as §1, §2, §3
The subject of assay [8] is Staphylococcus aureus (Sa). Nature of the assay: Minimum inhibitory concentration (MIC) in nutrient agar. It is filed as cell-based, Staphylococcus aureus ATCC 6538. On the procedure: as §1, §4, §5, §3
Assay [9] relates to Penicillium chrysogenum (Pc). Nature of the assay: Minimum inhibitory concentration (MIC) in malt yeast agar. To be noted: malt yeast agar; 30° C.; 72 hours for fungi; read-out: Minimum Inhibitory Concentration, Pc. Type of assay: cell-based, Penicillium chrysogenum ATCC 9480. The method, then:
as §1, §2, §3

[10] abbreviates: pH 6.8, read-out: Minimum Inhibitory Concentration, Sc.
Setting [11] is: pH 8.2, read-out: Minimum Inhibitory Concentration, Sc.
Where [12] appears, read: pH 6.8, read-out: Minimum Inhibitory Concentration, Ea.
Setting [13] is: pH 8.2, read-out: Minimum Inhibitory Concentration, Ea.
Setting [14] is: 48 h, pH 8.2, read-out: Minimum Inhibitory Concentration, Kp.
[15] abbreviates: pH 6.8, nutrient agar, 30° C., 48 hours, read-out: Minimum Inhibitory Concentration, Kp.
Setting [16] is: pH 6.8, read-out: Minimum Inhibitory Concentration, PRD.
The mark [17] stands for this setting: pH 8.2, read-out: Minimum Inhibitory Concentration, PRD.
The mark [18] stands for this setting: pH 6.8, read-out: Minimum Inhibitory Concentration, Ec.
Setting [19] is: pH 8.2, read-out: Minimum Inhibitory Concentration, Ec.
Setting [20] is: pH 6.8, read-out: Minimum Inhibitory Concentration, Pv.
The mark [21] stands for this setting: pH 8.2, read-out: Minimum Inhibitory Concentration, Pv.
The mark [22] stands for this setting: 48 h, pH 6.8, read-out: Minimum Inhibitory Concentration, Bs.
Where [23] appears, read: 48 h, pH 8.2, read-out: Minimum Inhibitory Concentration, Bs.
Setting [24] is: 48 h, pH 8.2, read-out: Minimum Inhibitory Concentration, Sa.
Setting [25] is: pH 6.8, nutrient agar, 30° C., 48 hours, read-out: Minimum Inhibitory Concentration, Sa.

For `N#CC(C#N)=C1Sc2nc3ccc(C#N)cc3nc2S1` [S, 6-cyano-1,3-dithiolo-(4,5-b)-quinoxaline-2-ylidene-propanedinitrile], the MIC in [1] was 500 µg/mL (≈ 1700 µM); in assay [2] (setting [10]), above 500 µg/mL; in assay [2] (setting [11]), above 500 µg/mL; in assay [3] (setting [12]) it was above 500 µg/mL; in [3] (setting [13]) it was above 500 µg/mL; in assay [4] (pH 6.8, 30° C.), above 500 µg/mL. Moreover, the MIC in assay [4] (pH 8.2, 30° C.) is above 500 µg/mL; in the assay with Candida albicans (Ca), 500 µg/mL (≈ 1700 µM); in assay [5] (setting [14]), above 500 µg/mL; in [5] (setting [15]), above 500 µg/mL; in assay [6] (malt yeast agar, 30° C., 48 hours for yeast and 72 hours for fungi), 100 µg/mL (≈ 341 µM); in assay [7] (setting [16]), above 500 µg/mL. The MIC in assay [7] (setting [17]) was above 500 µg/mL; in the assay with Aspergillus niger (An), 100 µg/mL (≈ 341 µM); in the assay with Escherichia coli (Ec) (setting [18]), above 500 µg/mL; with Escherichia coli (Ec) (setting [19]), above 500 µg/mL; in the assay with Proteus vulgaris (Pv) (setting [20]), above 500 µg/mL; in the assay on Proteus vulgaris (Pv) (setting [21]), above 500 µg/mL. For the same compound, the MIC in the assay with Trichoderma viride (Tv) is above 500 µg/mL; in the assay with Bacillus subtilis (Bs) (setting [22]), above 500 µg/mL; in the assay with Bacillus subtilis (Bs) (setting [23]) it was above 500 µg/mL; with Fusarium oxysporum (Fo), 500 µg/mL (≈ 1700 µM); in assay [8] (setting [24]), above 500 µg/mL; in assay [8] (setting [25]) it was above 500 µg/mL.

Take `N#CC(C#N)=C1Sc2nc3ccc(C(F)(F)F)cc3nc2S1` [T, 6-trifluoromethyl-1,3-dithiolo-(4,5-b)-quinoxaline-2-ylidene-propanedinitrile]: the MIC in assay [1] is above 500 µg/mL; in [2] (setting [10]), above 500 µg/mL; in assay [2] (setting [11]), above 500 µg/mL; in assay [3] (setting [12]), above 500 µg/mL; in [3] (setting [13]) it was above 500 µg/mL; in assay [4] (pH 6.8, 30° C.) it was above 500 µg/mL. Moreover, the MIC was above 500 µg/mL in assay [4] (pH 8.2, 30° C.); above 500 µg/mL in the assay on Candida albicans (Ca); above 500 µg/mL in assay [5] (setting [14]); above 500 µg/mL in [5] (setting [15]); 250 µg/mL (≈ 743 µM) in assay [6]; above 500 µg/mL in [7] (setting [16]). Further, the MIC (in [7] (setting [17]); in the assay with Escherichia coli (Ec) (setting [18]); in the assay on Escherichia coli (Ec) (setting [19]); in the assay on Proteus vulgaris (Pv) (setting [20]); in the assay with Proteus vulgaris (Pv) (setting [21]); in the assay with Trichoderma viride (Tv)) was above 500 µg/mL each time. For the same compound, the MIC in the assay with Bacillus subtilis (Bs) (setting [22]) is above 500 µg/mL; in the assay on Bacillus subtilis (Bs) (setting [23]) it was above 500 µg/mL; in assay [9], 250 µg/mL (≈ 743 µM); with Fusarium oxysporum (Fo) it was above 500 µg/mL; in assay [8] (setting [24]) it was above 500 µg/mL; in [8] (setting [25]), above 500 µg/mL.

`N#CC1=C(C#N)Sc2nc3cc(C(=O)c4ccccc4)ccc3nc2S1` [V, 7-benzoyl-1,4-dithiino-(2,3-b)-quinoxaline-2,3-dicarbonitrile]: the MIC is 500 µg/mL (≈ 1340 µM) in [1]; above 500 µg/mL in assay [2] (setting [10]); above 500 µg/mL in assay [2] (setting [11]); above 500 µg/mL in [3] (setting [12]); above 500 µg/mL in assay [3] (setting [13]); above 500 µg/mL in assay [4] (pH 6.8, 30° C.). Also, the MIC in [4] (pH 8.2, 30° C.) was above 500 µg/mL; in the assay on Candida albicans (Ca) it was 500 µg/mL (≈ 1340 µM); in assay [5] (setting [14]), above 500 µg/mL; in assay [5] (setting [15]), above 500 µg/mL; in [6] it was 250 µg/mL (≈ 671 µM); in assay [7] (setting [16]) it was above 500 µg/mL. Also, the MIC was above 500 µg/mL in [7] (setting [17]); above 500 µg/mL with Escherichia coli (Ec) (setting [18]); above 500 µg/mL in the assay on Escherichia coli (Ec) (setting [19]); above 500 µg/mL in the assay with Proteus vulgaris (Pv) (setting [20]); above 500 µg/mL in the assay with Proteus vulgaris (Pv) (setting [21]); 500 µg/mL (≈ 1340 µM) in the assay with Trichoderma viride (Tv). For the same compound, the MIC is above 500 µg/mL in the assay with Bacillus subtilis (Bs) (setting [23]); 50 µg/mL (≈ 134 µM) in the assay on Bacillus subtilis (Bs) (pH 6.8, nutrient agar, 30° C., 48 hours, read-out: Minimum Inhibitory Concentration, Bs); 250 µg/mL (≈ 671 µM) in assay [9]; 500 µg/mL (≈ 1340 µM) in the assay on Fusarium oxysporum (Fo); 50 µg/mL (≈ 134 µM) in assay [8] (48 h, pH 6.8, read-out: Minimum Inhibitory Concentration, Sa); above 500 µg/mL in [8] (setting [24]).
